Experimental data from patent US11850247B2, “Antiviral compounds” (REGENTS OF THE UNIVERSITY OF MINNESOTA, priority 2020, dated 2023).

How the values were obtained:
HIV-1 = test: Anti-HIV-1 activity in TZM-GFP cells (viral LTR-activated GFP expression); format: cell-based; conditions: for inhibition at 2 µM: Human immunodeficiency virus 1, 2 μM compound; for inhibition at 2 µM / inhibition at 20 µM: HIV-1 MOI=1; for inhibition at 20 µM: Human immunodeficiency virus 1, 20 μM compound; for EC50: Human immunodeficiency virus 1, HIV-1 strain MOI=1, GFP positive cells counted after 48 hours
Description: The potency of HIV-1 inhibition by a compound was based on its inhibitory effect on viral LTR-activated GFP expression compared with that of compound-free (DMSO) controls. Briefly, TZM-GFP cells were plated at density of 1×10^4 cells per well in a 96-well plate. 24 hours later, media was replaced with increasing concentrations of compound. 24 hours post treatment, cells were exposed to an HIV-1 strain (MOI=1).
(§1) The cytotoxicity of each compound was also determined in TZM-GFP cells. Cells were plated at a density of 1×10^4 cells per well in a 96-well plate and were continuously exposed to increasing concentrations of a compound for 72 hours. The number of viable cells in each well was determined using a Cell Proliferation Kit II (XTT), and 50% cytotoxicity concentration (CC50) values were determined. All the cell-based assays were conducted in duplicate and in at least two independent experiments. For the EC50 and CC50 dose responses, values were plotted in GraphPad Prism 5 and analyzed with the log (inhibitor) vs. normalized response-variable slope equation. Final values were calculated in each independent assay and the average values were determined. Statistical analysis (calculation of standard deviation) was performed by using Microsoft Excel.

[1] = Cytotoxicity in TZM-GFP cells (XTT); format: cell-based; conditions: human, 72 hours exposure, XTT
Description: as §1

[2] = molecular target: covalently-crosslinked hexameric CA A14C/E45C/W184A/M185A (CA121) (Human immunodeficiency virus type 1 group M subtype B, UniProt P12493, A146C/E177C/M317A/W316A); test: Thermal shift assay (TSA), CA hexamer stability; format: binding, HIV-1; conditions: compound 20 μM, ΔTm=Tm−T0 vs DMSO

## CN(C(=O)[C@H](Cc1ccccc1)NC(=O)CNC(=O)c1ccccc1)c1ccc(F)cc1 [Example 38, (S)—N-(2-((1-((4-fluorophenyl)(methyl)amino)-1-oxo-3-phenylpropan-2-yl)amino)-2-oxoethyl)benzamide]
HIV-1
  inhibition at 2 µM: 12%
  inhibition at 20 µM: 97%
[1]
  CC50 at 72 h: > 50 µM
[2]
  TSA ΔTm (° C.): 2.2 °C

## Cc1ccc(N(C)C(=O)[C@H](Cc2ccccc2)NC(=O)CNC(=O)c2ccccc2)cc1 [Example 35, (S)—N-(2-((1-(methyl(p-tolyl)amino)-1-oxo-3-phenylpropan-2-yl)amino)-2-oxoethyl)benzamide]
HIV-1
  EC50: 1600 ± 20 nM
[1]
  CC50 at 72 h: > 50 µM
[2]
  TSA ΔTm (° C.): 5.0 °C

## CN(C(=O)[C@H](Cc1ccccc1)NC(=O)CNC(=O)c1ccccc1)c1cccc(Cl)c1 [Example 37, (S)—N-(2-((1-((3-chlorophenyl)(methyl)amino)-1-oxo-3-phenylpropan-2-yl)amino)-2-oxoethyl)benzamide]
HIV-1
  inhibition at 2 µM: 40%
  inhibition at 20 µM: 95%
[1]
  CC50 at 72 h: > 50 µM
[2]
  TSA ΔTm (° C.): 2.0 °C

## CN(C(=O)[C@H](Cc1ccccc1)NC(=O)CN1C(=O)NC2(CCCCC2)C1=O)c1cccc(F)c1 [Example 26, 2-(2-(2,4-dioxo-1,3-diazaspiro[4.5]decan-3-yl)acetamido)-N-(3-fluorophenyl)-N-methyl-3-phenylpropanamide]
HIV-1
  inhibition at 2 µM: 24%
  inhibition at 20 µM: 98%
[1]
  CC50 at 72 h: > 50 µM
[2]
  TSA ΔTm (° C.): 1.3 °C

## Cc1cn(CC(=O)N[C@@H](Cc2ccccc2)C(=O)N(C)c2cccc(Br)c2)c(=O)[nH]c1=O [Example 48, (S)—N-(3-bromophenyl)-N-methyl-2-(2-(5-methyl-2,4-dioxo-3,4-dihydropyrimidin-1(2H)-yl)acetamido)-3-phenylpropanamide]
HIV-1
  inhibition at 2 µM: 22%
  inhibition at 20 µM: 99.7%
[1]
  CC50 at 72 h: > 50 µM
[2]
  TSA ΔTm (° C.): 0.5 °C

## CN(C(=O)[C@H](Cc1ccccc1)NC(=O)Cn1c(=O)[nH]c2ccccc2c1=O)c1ccc(F)cc1 [Example 32, (S)-2-(2-(2,4-dioxo-1,4-dihydroquinazolin-3(2H)-yl)acetamido)-N-(4-fluorophenyl)-N-methyl-3-phenylpropanamide]
HIV-1
  EC50: 8000 ± 1300 nM
[1]
  CC50 at 72 h: > 100 µM
[2]
  TSA ΔTm (° C.): 2.4 °C

## CN(C(=O)[C@H](Cc1ccccc1)NC(=O)CNC(=O)c1ccccc1)c1cccc(Br)c1 [Example 40, (S)—N-(2-((1-((3-bromophenyl)(methyl)amino)-1-oxo-3-phenylpropan-2-yl)amino)-2-oxoethyl)benzamide]
HIV-1
  inhibition at 2 µM: 38%
  inhibition at 20 µM: 97%
[1]
  CC50 at 72 h: > 50 µM
[2]
  TSA ΔTm (° C.): 2.2 °C

## Cc1cccc2c1NC(=O)C2CC(=O)N[C@@H](Cc1ccccc1)C(=O)N(C)c1cccc(F)c1 (stereo partly drawn) [Example 4, (2S)—N-(3-fluorophenyl)-N-methyl-2-(2-(7-methyl-2-oxoindolin-3-yl)acetamido)-3-phenylpropanamide]
HIV-1
  inhibition at 2 µM: 0%
  inhibition at 20 µM: 93%
[1]
  CC50 at 72 h: > 50 µM
[2]
  TSA ΔTm (° C.): −0.9 °C

## Cc1ccc(N(C)C(=O)[C@H](Cc2ccccc2)NC(=O)Cn2cc(C)c(=O)[nH]c2=O)cc1 [Example 43, (S)—N-methyl-2-(2-(5-methyl-2,4-dioxo-3,4-dihydropyrimidin-1(2H)-yl)acetamido)-3-phenyl-N-(p-tolyl)propenamide]
HIV-1
  inhibition at 2 µM: 7%
  inhibition at 20 µM: 85%
[1]
  CC50 at 72 h: > 50 µM
[2]
  TSA ΔTm (° C.): 0.6 °C

## Cc1cn(CC(=O)N[C@@H](Cc2ccccc2)C(=O)N(C)c2ccc(F)cc2)c(=O)[nH]c1=O [Example 46, (S)—N-(4-fluorophenyl)-N-methyl-2-(2-(5-methyl-2,4-dioxo-3,4-dihydropyrimidin-1(2H)-yl)acetamido)-3-phenylpropanamide]
HIV-1
  inhibition at 2 µM: 6%
  inhibition at 20 µM: 94%
[1]
  CC50 at 72 h: > 50 µM
[2]
  TSA ΔTm (° C.): 0 °C

## CN(C(=O)[C@H](Cc1ccccc1)NC(=O)Cc1ccc2ccccc2c1)c1cccc(F)c1 [Example 14, (S)—N-(3-fluorophenyl)-N-methyl-2-(2-(naphthalen-2-yl)acetamido)-3-phenylpropanamide]
HIV-1
  inhibition at 2 µM: 0%
  inhibition at 20 µM: 97%
[1]
  CC50 at 72 h: < 50 µM
[2]
  TSA ΔTm (° C.): 5.2 °C

## CCN(C(=O)[C@H](Cc1ccccc1)NC(=O)CNC(=O)c1ccccc1)c1ccccc1 [Example 41, (S)—N-(2-((1-(ethyl(phenyl)amino)-1-oxo-3-phenylpropan-2-yl)amino)-2-oxoethyl)benzamide]
HIV-1
  EC50: 2500 ± 30 nM
[1]
  CC50 at 72 h: > 50 µM
[2]
  TSA ΔTm (° C.): −2.5 °C

## CN(C(=O)[C@H](Cc1ccccc1)NC(=O)CN1C(=O)NC2(CCCCC2)C1=O)c1cccc(Cl)c1 [Example 28, N-(3-chlorophenyl)-2-(2-(2,4-dioxo-1,3-diazaspiro[4.5]decan-3-yl)acetamido)-N-methyl-3-phenylpropanamide]
HIV-1
  inhibition at 2 µM: 9%
  inhibition at 20 µM: 98%
[1]
  CC50 at 72 h: < 50 µM
[2]
  TSA ΔTm (° C.): 3.3 °C

## CCN(C(=O)[C@H](Cc1ccccc1)NC(=O)Cc1cccc2ccccc12)c1ccccc1 [Example 21, (S)—N-ethyl-2-(2-(naphthalen-1-yl)acetamido)-N,3-diphenylpropanamide]
HIV-1
  EC50: 1800 ± 90 nM
[1]
  CC50 at 72 h: < 50 µM
[2]
  TSA ΔTm (° C.): 4.9 °C

## CCN(C(=O)[C@H](Cc1ccccc1)NC(=O)CN1C(=O)NC2(CCCCC2)C1=O)c1ccccc1 [Example 30, 2-(2-(2,4-dioxo-1,3-diazaspiro[4.5]decan-3-yl)acetamido)-N-ethyl-N,3-diphenylpropanamide]
HIV-1
  EC50: 7600 ± 900 nM
[1]
  CC50 at 72 h: > 100 µM
[2]
  TSA ΔTm (° C.): 2.0 °C

## CN(C(=O)[C@H](Cc1ccccc1)NC(=O)CN1C(=O)NC2(CCCCC2)C1=O)c1cccc(Br)c1 [Example 29, N-(3-bromophenyl)-2-(2-(2,4-dioxo-1,3-diazaspiro[4.5]decan-3-yl)acetamido)-N-methyl-3-phenylpropanamide]
HIV-1
  EC50: > 20000 nM
[1]
  CC50 at 72 h: > 50 µM
[2]
  TSA ΔTm (° C.): 1.5 °C

## Cc1ccc(N(C)C(=O)[C@H](Cc2ccccc2)NC(=O)CN2C(=O)NC3(CCCCC3)C2=O)cc1 [Example 24, 2-(2-(2,4-dioxo-1,3-diazaspiro[4.5]decan-3-yl)acetamido)-N-methyl-3-phenyl-N-(p-tolyl)propenamide]
HIV-1
  EC50: 1900 ± 500 nM
[1]
  CC50 at 72 h: > 100 µM
[2]
  TSA ΔTm (° C.): 2.7 °C

## CN(C(=O)[C@H](Cc1ccccc1)NC(=O)Cc1cccc2ccccc12)c1cccc(Cl)c1 [Example 19, (S)—N-(3-chlorophenyl)-N-methyl-2-(2-(naphthalen-1-yl)acetamido)-3-phenylpropanamide]
HIV-1
  inhibition at 2 µM: 53%
  inhibition at 20 µM: 96%
[1]
  CC50 at 72 h: < 50 µM
[2]
  TSA ΔTm (° C.): 4.4 °C

## CN(C(=O)[C@H](Cc1ccccc1)NC(=O)Cc1ccc2ccccc2c1)c1ccc(Cl)cc1 [Example 12, (S)—N-(4-chlorophenyl)-N-methyl-2-(2-(naphthalen-2-yl)acetamido)-3-phenylpropanamide]
HIV-1
  EC50: 630 ± 20 nM
[1]
  CC50 at 72 h: < 50 µM
[2]
  TSA ΔTm (° C.): 7.0 °C

## Cc1cccc2c1NC(=O)C2CC(=O)N[C@@H](Cc1ccccc1)C(=O)N(C)c1cccc(Cl)c1 (stereo partly drawn) [Example 3, (2S)—N-(3-chlorophenyl)-N-methyl-2-(2-(7-methyl-2-oxoindolin-3-yl)acetamido)-3-phenylpropanamide]
HIV-1
  EC50: 3300 ± 300 nM
[1]
  CC50 at 72 h: > 100 µM
[2]
  TSA ΔTm (° C.): −1.7 °C

## Cc1ccc(C)c2c1NC(=O)C2CC(=O)N[C@@H](Cc1ccccc1)C(=O)N(C)c1ccccc1 (stereo partly drawn) [Example 5, (2S)-2-(2-(4,7-dimethyl-2-oxoindolin-3-yl)acetamido)-N-methyl-N,3-diphenylpropanamide]
HIV-1
  EC50: 4900 ± 300 nM
[1]
  CC50 at 72 h: > 100 µM
[2]
  TSA ΔTm (° C.): −1.8 °C

## Cc1ccc(C)c2c1NC(=O)C2CC(=O)N[C@@H](Cc1ccccc1)C(=O)N(C)c1ccc(Cl)cc1 (stereo partly drawn) [Example 8, (2S)—N-(4-chlorophenyl)-2-(2-(4,7-dimethyl-2-oxoindolin-3-yl)acetamido)-N-methyl-3-phenylpropanamide]
HIV-1
  EC50: 2800 ± 100 nM
[1]
  CC50 at 72 h: 63 ± 13 µM
[2]
  TSA ΔTm (° C.): −1.3 °C

## Cc1ccc(C)c2c1NC(=O)C2CC(=O)N[C@@H](Cc1ccccc1)C(=O)N(C)c1ccc(F)cc1 (stereo partly drawn) [Example 6, (2S)-2-(2-(4,7-dimethyl-2-oxoindolin-3-yl)acetamido)-N-(4-fluorophenyl)-N-methyl-3-phenylpropanamide]
HIV-1
  EC50: 5400 ± 500 nM
[1]
  CC50 at 72 h: > 100 µM
[2]
  TSA ΔTm (° C.): −1.7 °C

## CN(C(=O)[C@H](Cc1ccccc1)NC(=O)Cc1cccc2ccccc12)c1ccccc1 [Example 16, (S)—N-methyl-2-(2-(naphthalen-1-yl)acetamido)-N,3-diphenylpropanamide]
HIV-1
  EC50: 1100 ± 40 nM
[1]
  CC50 at 72 h: < 50 µM
[2]
  TSA ΔTm (° C.): 6.0 °C

## Cc1cn(CC(=O)N[C@@H](Cc2ccccc2)C(=O)N(C)c2cccc(Cl)c2)c(=O)[nH]c1=O [Example 45, (S)—N-(3-chlorophenyl)-N-methyl-2-(2-(5-methyl-2,4-dioxo-3,4-dihydropyrimidin-1(2H)-yl)acetamido)-3-phenylpropanamide]
HIV-1
  inhibition at 2 µM: 37%
  inhibition at 20 µM: 95%
[1]
  CC50 at 72 h: > 50 µM
[2]
  TSA ΔTm (° C.): 0.6 °C
